According to US20240391882A1 (Mirati Therapeutics, Inc., priority 2023, published 2024):

Experiments:
Type in all cases: cell-based
[1] = system: pAKT in T47D (PI3Kα H1047R mutant) cells; experiment: Inhibition of pAKT (alphaLISA Surefire Ultra AKT 1/2/3 pS473) in T47D cells; settings: Homo sapiens; T47D (PI3Kα H1047R mutant) cells, 24 hr compound incubation, alphaLISA pS473; read-out: T47D (H1047R) pAKT 24 hr (IC50)
How it was run: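 AlphaLISA read-out of AKT pS473 in lysates after roughly 24 h compound exposure at 37° C in HBSS. Ten concentrations, 1:4 dilutions from a 10.4 μm top dose. Percent of control uses alpelisib at 3.125 μm as background and DMSO as vehicle; four-parameter curve gives IC50.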

[2] = system: SKBR3 (PI3Kα wild type) cells; experiment: Cell viability (CellTiter-Glo 2.0) in SKBR3 cells; settings: Homo sapiens, SK-BR-3; SKBR3 (PI3Kα wild type) cells, approximately 72 hours, CellTiter-Glo 2.0; read-out: SKBR3 (WT) Viability IC50
How it was run: (§1)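 IC50 values derive from four-parameter fits of CellTiter-Glo luminescence expressed as percent of vehicle control. Cells (T47D or SKBR3) were plated at 1000/well the day before dosing and incubated about 72 h at 37° C with a 10-point, 1:4 series starting at 10 μm.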

[3] = system: T47D (PI3Kα H1047R mutant) cells; experiment: Cell viability (CellTiter-Glo 2.0) in T47D cells; settings: Homo sapiens, T47D, 72 h, approximately 72 hours
How it was run: as §1

SMILES	IC50 [1] [µM]	IC50 [2] [µM]	IC50 [3] [µM]
COC1(C)CN(c2nc3c([C@@H](C)Nc4ccccc4C(=O)O)cc(C)cc3nc2C#N)C1 [Example 63, (R)-2-((1-(2-cyano-3-(3-methoxy-3-methylazetidin-1-yl)-7-methylquinoxalin-5-yl)ethyl)amino)benzoic acid]	0.0165	9.81	0.254
COC1(C)CN(c2nc3c([C@@H](C)Nc4ccc(Cl)nc4C(=O)O)cc(C)cc3nc2C#N)C1 [Example 64, (R)-6-chloro-3-((1-(2-cyano-3-(3-methoxy-3-methylazetidin-1-yl)-7-methylquinoxalin-5-yl)ethyl)amino)picolinic acid]	0.0013	> 10	0.044
Cc1cc([C@@H](C)Nc2ccccc2C(=O)O)c2nc(C3CC3)c(C#N)nc2c1 [Example 67, (R)-2-((1-(2-cyano-3-cyclopropyl-7-methylquinoxalin-5-yl)ethyl)amino)benzoic acid]	0.072	2.77	0.687
Cc1cc([C@@H](C)Nc2ccccc2C(=O)O)c2nc(N3CCCC3)c(C#N)nc2c1 [Example 68, (R)-2-((1-(2-cyano-7-methyl-3-(pyrrolidin-1-yl)quinoxalin-5-yl)ethyl)amino)benzoic acid]	0.0244	> 10	0.391
Cc1cc([C@@H](C)Nc2ccc(Cl)nc2C(=O)O)c2nc(N3CCCC3)c(C#N)nc2c1 [Example 69, (R)-6-chloro-3-((1-(2-cyano-7-methyl-3-(pyrrolidin-1-yl)quinoxalin-5-yl)ethyl)amino)picolinic acid]	0.0021	9.65	0.0502
Cc1cc([C@@H](C)Nc2ccc(Cl)nc2C(=O)O)c2nc(N3CCC(F)(F)C3)c(C#N)nc2c1 [Example 70, (R)-6-chloro-3-((1-(2-cyano-3-(3,3-difluoropyrrolidin-1-yl)-7-methylquinoxalin-5-yl)ethyl)amino)picolinic acid]	0.0026	9.65	0.031
Cc1cc([C@@H](C)Nc2ccc(Cl)nc2C(=O)O)c2nc(N3CCC4(CC3)C(F)(F)C4(F)F)c(C#N)nc2c1 [Example 82, (R)-6-chloro-3-((1-(2-cyano-7-methyl-3-(1,1,2,2-tetrafluoro-6-azaspiro[2.5]octan-6-yl)quinoxalin-5-yl)ethyl)amino)picolinic acid]	0.0045	5.03	0.121
C[C@@H](Nc1ccc(Cl)nc1C(=O)O)c1cc(Cl)cc2nc(C#N)c(N3CC4(COC4)C3)nc12 [Example 145]	0.0014	9.96	0.09
Cc1cc([C@@H](C)Nc2ccc(Cl)nc2C(=O)O)c2nc(N3CCO[C@H](C(F)(F)F)C3)c(C#N)nc2c1 [Example 190A, 6-chloro-3-(((R)-1-(2-cyano-7-methyl-3-((S)-2-(trifluoromethyl)morpholino)quinoxalin-5-yl)ethyl)amino)picolinic acid]	0.0044	> 10	0.271
Cc1cc([C@@H](C)Nc2ccc(Cl)nc2C(=O)O)c2nc(N3CCO[C@@H](C(F)(F)F)C3)c(C#N)nc2c1 [Example 190B, 6-chloro-3-(((R)-1-(2-cyano-7-methyl-3-((R)-2-(trifluoromethyl)morpholino)quinoxalin-5-yl)ethyl)amino)picolinic acid]	0.0173	> 10	0.764
CO[C@H]1CCCN(c2nc3c([C@@H](C)Nc4ccc(Cl)nc4C(=O)O)cc(C)cc3nc2C#N)C1 [Example 196A, 6-chloro-3-(((R)-1-(2-cyano-3-((S)-3-methoxypiperidin-1-yl)-7-methylquinoxalin-5-yl)ethyl)amino)picolinic acid]	0.0012	> 10	0.0621
CO[C@@H]1CCCN(c2nc3c([C@@H](C)Nc4ccc(Cl)nc4C(=O)O)cc(C)cc3nc2C#N)C1 [Example 196B, 6-chloro-3-(((R)-1-(2-cyano-3-((R)-3-methoxypiperidin-1-yl)-7-methylquinoxalin-5-yl)ethyl)amino)picolinic acid]	0.0022	> 10	0.0614
Cc1cc([C@@H](C)Nc2ccc(Cl)nc2C(=O)O)c2nc(N3CCN(c4cc(C)no4)CC3)c(C#N)nc2c1 [Example 200, (R)-6-chloro-3-((1-(2-cyano-7-methyl-3-(4-(3-methylisoxazol-5-yl)piperazin-1-yl)quinoxalin-5-yl)ethyl)amino)picolinic acid]	0.0012	5.47	0.0172
Cc1cc([C@@H](C)Nc2ccc(Cl)nc2C(=O)O)c2nc(N3CCN(c4cc(C)on4)CC3)c(C#N)nc2c1 [Example 201, (R)-6-chloro-3-((1-(2-cyano-7-methyl-3-(4-(5-methylisoxazol-3-yl)piperazin-1-yl)quinoxalin-5-yl)ethyl)amino)picolinic acid]	0.00027	7.81	0.0105
Cc1cc([C@@H](C)Nc2ccc(Cl)nc2C(=O)O)c2nc(N3CCC(N4CCCCC4=O)CC3)c(C#N)nc2c1 [Example 202, (R)-6-chloro-3-((1-(2-cyano-7-methyl-3-(2-oxo-[1,4′-bipiperidin]-1′-yl)quinoxalin-5-yl)ethyl)amino)picolinic acid]	0.0014	9.93	0.0764
Cc1cc([C@@H](C)Nc2cccnc2C(=O)O)c2nc(N3CCOCC3)c(C#N)nc2c1 [Example 203, (R)-3-((1-(2-cyano-7-methyl-3-morpholinoquinoxalin-5-yl)ethyl)amino)picolinic acid]	0.0251	2.23	0.559
Cc1cc([C@@H](C)Nc2cccnc2C(=O)O)c2nc(N3CCC(F)(F)C3)c(C#N)nc2c1 [Example 204, (R)-3-((1-(2-cyano-3-(3,3-difluoropyrrolidin-1-yl)-7-methylquinoxalin-5-yl)ethyl)amino)picolinic acid]	0.0581	1.85	0.393
COC[C@H]1[C@H]2CN(c3nc4c([C@@H](C)Nc5ccc(Cl)nc5C(=O)O)cc(C)cc4nc3C#N)C[C@@H]12 [Example 213, 6-chloro-3-(((R)-1-(2-cyano-3-((1R,5S,6S)-6-(methoxymethyl)-3-azabicyclo[3.1.0]hexan-3-yl)-7-methylquinoxalin-5-yl)ethyl)amino)picolinic acid]	0.00091	9.55	0.061
Cc1cc([C@@H](C)Nc2ccc(Cl)nc2C(=O)O)c2nc(N3CC4C(F)C4C3)c(C#N)nc2c1 (stereo partly drawn) [Example 215, 6-chloro-3-(((1R)-1-(2-cyano-3-(6-fluoro-3-azabicyclo[3.1.0]hexan-3-yl)-7-methylquinoxalin-5-yl)ethyl)amino)picolinic acid]	0.0016	> 10	0.028
Cc1cc([C@@H](C)Nc2ccc(Cl)nc2C(=O)O)c2nc(N3CCc4cnccc4C3)c(C#N)nc2c1 [Example 216, (R)-6-chloro-3-((1-(2-cyano-3-(3,4-dihydro-2,6-naphthyridin-2(1H)-yl)-7-methylquinoxalin-5-yl)ethyl)amino)picolinic acid]	0.00045	> 10	0.048
Cc1cc([C@@H](C)Nc2ccc(Cl)nc2C(=O)O)c2nc(N3CCc4ccc(C#N)cc4C3)c(C#N)nc2c1 [Example 217, (R)-6-chloro-3-((1-(2-cyano-3-(7-cyano-3,4-dihydroisoquinolin-2(1H)-yl)-7-methylquinoxalin-5-yl)ethyl)amino)picolinic acid]	0.00069	> 10	0.064
Cc1cc([C@@H](C)Nc2ccc(Cl)nc2C(=O)O)c2nc(N3CCc4c(ccn(C)c4=O)C3)c(C#N)nc2c1 [Example 221, (R)-6-chloro-3-((1-(2-cyano-7-methyl-3-(6-methyl-5-oxo-3,4,5,6-tetrahydro-2,6-naphthyridin-2(1H)-yl)quinoxalin-5-yl)ethyl)amino)picolinic acid]	0.00088	> 10	0.147
Cc1cc([C@@H](C)Nc2ccc(Cl)nc2C(=O)O)c2nc(N3CCc4ccn(C)c(=O)c4C3)c(C#N)nc2c1 [Example 222, (R)-6-chloro-3-((1-(2-cyano-7-methyl-3-(7-methyl-8-oxo-3,4,7,8-tetrahydro-2,7-naphthyridin-2(1H)-yl)quinoxalin-5-yl)ethyl)amino)picolinic acid]	0.0042	> 10	0.225
Cc1cc([C@@H](C)Nc2ccc(Cl)nc2C(=O)O)c2nc(-c3ccc(=O)n(C)c3)c(C#N)nc2c1 [Example 223, (R)-6-chloro-3-((1-(2-cyano-7-methyl-3-(1-methyl-6-oxo-1,6-dihydropyridin-3-yl)quinoxalin-5-yl)ethyl)amino)picolinic acid]	0.02	> 10	1.03
Cc1cc([C@@H](C)Nc2ccc(Cl)nc2C(=O)O)c2nc(N3CC4CS(=O)(=O)CC4C3)c(C#N)nc2c1 (stereo partly drawn) [Example 228, 6-chloro-3-(((1R)-1-(2-cyano-3-(2,2-dioxidotetrahydro-1H-thieno[3,4-c]pyrrol-5(3H)-yl)-7-methylquinoxalin-5-yl)ethyl)amino)picolinic acid]	0.0332	> 10	0.368
